From patent US20250073249A1, “STEROID COMPOUND, AND PREPARATION METHOD THEREFOR AND USE THEREOF” (SHANGHAI INSTITUTE OF MATERIA MEDICA, CHINESE ACADEMY OF …, priority 2022, published 2025)

Legend:
LNCaP cells = assay: In vitro LNCaP cell proliferation inhibition test (CellTiter-Glo); format: cell-based; conditions: for Maximum Inhibition (%) / IC50: 6 days; for IC50: Homo sapiens, read-out: Anti-proliferative activity IC50; for Anti-proliferative activity, fold improvement compared to abiraterone: ratio to abiraterone IC50
Method: The cells were then digested with trypsin and counted using an automated cell counter to determine cell density. The cell suspension was diluted to the desired density in growth medium. Subsequently, 100 μL of the cell suspension was seeded into 96-well plates and incubated at 37° C. with 5% CO2 for 24 hours. 10 μL of drug solution (including 3-fold serial dilutions of compounds or DMSO) was added to each well, and the plates were incubated at 37° C. with 5% CO2 for 6 days. Prior to measurement, the assay plates were equilibrated to room temperature. 40 μL of CellTiter-Glo® reagent was added to each well. The plates were mixed on an orbital shaker for 2 minutes to induce cell lysis. After incubation at room temperature for 60 minutes to stabilize the luminescence signal, the plates were read on an Envision plate reader.

[1] = test system: androgen-dependent organs; assay: Hershberger assay, in vivo anti-androgenic activity; design: species or system Sprague-Dawley rats; conditions: castrated male rats, 0.4 mg/kg testosterone propionate, 20 mg/kg QD oral, 10 days
Method: The Hershberger assay was used to detect the in vivo anti-androgenic signal transduction activity of the compounds of the present invention. In this assay, compounds of the present invention (14, 33 and 37) were administered to prepubertal castrated male Sprague-Dawley rats in the presence of 0.4 mg/kg testosterone propionate (TP), and the weights of androgen-dependent organs were measured. Dosing continued for 10 days, and measurements were made 24 hours after the last dose. The degree of AR antagonism and subsequent organ growth inhibition was evaluated by comparison with castrated controls. The test compounds were orally administered at 20 mg/kg QD and the endpoint evaluation was performed by measuring the weight changes of 2 androgen-sensitive organs (ASO): seminal vesicles with coagulating glands (SVCG) and ventral prostate (VP). Enzalutamide (ENZ) was used as a positive control.

AR = target: T1, AR (Homo sapiens, UniProt P10275, T878A); assay: In vitro AR degradation activity test in LNCaP cells (ELISA, OD450); format: cell-based; conditions: for DC50: LNCaP cells, 24 hours; for AR degradation activity, improvement compared to Galeterone: ratio to Galeterone DC50
T1 construct: endogenous in cells; host or cells: LNCaP
T1 sequence (P10275 1-920 T878A): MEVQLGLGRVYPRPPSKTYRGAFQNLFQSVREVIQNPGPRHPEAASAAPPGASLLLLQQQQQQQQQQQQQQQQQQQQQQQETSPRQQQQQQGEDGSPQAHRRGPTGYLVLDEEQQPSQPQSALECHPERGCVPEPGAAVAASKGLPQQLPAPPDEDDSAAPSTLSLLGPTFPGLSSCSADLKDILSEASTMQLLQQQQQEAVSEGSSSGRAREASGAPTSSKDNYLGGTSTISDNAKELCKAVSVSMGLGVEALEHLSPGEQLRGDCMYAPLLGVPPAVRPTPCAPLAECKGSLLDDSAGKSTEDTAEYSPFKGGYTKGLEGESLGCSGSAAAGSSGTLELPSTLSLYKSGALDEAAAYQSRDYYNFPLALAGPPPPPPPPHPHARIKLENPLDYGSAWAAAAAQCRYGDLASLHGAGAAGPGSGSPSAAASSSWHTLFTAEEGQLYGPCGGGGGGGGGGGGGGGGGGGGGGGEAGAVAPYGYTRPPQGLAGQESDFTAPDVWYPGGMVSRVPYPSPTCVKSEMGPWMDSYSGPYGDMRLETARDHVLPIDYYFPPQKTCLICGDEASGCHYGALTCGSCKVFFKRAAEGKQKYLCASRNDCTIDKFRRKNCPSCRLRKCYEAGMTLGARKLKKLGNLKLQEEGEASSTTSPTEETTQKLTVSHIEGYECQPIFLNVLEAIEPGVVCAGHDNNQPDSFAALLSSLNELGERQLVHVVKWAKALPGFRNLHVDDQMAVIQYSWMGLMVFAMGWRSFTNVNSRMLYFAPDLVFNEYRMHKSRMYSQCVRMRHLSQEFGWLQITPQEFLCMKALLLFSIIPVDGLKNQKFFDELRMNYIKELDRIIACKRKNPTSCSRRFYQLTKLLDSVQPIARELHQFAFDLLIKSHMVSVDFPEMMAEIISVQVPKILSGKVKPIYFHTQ
In short: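 AR in protein-normalized lysates was quantified by sandwich ELISA with HRP detection at OD450. Degradation rate (%) was computed from OD450 max/min controls, and IC50 was derived from it.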

Cc1cn(C2=CCC3C4CC=C5C[C@@H](NC(=O)c6ccncc6)CC[C@]5(C)C4CC[C@]23C)cn1 (stereo partly drawn) [Compound 14, N-((3S,10R,13S)-10,13-dimethyl-17-(4-methyl-1H-imidazol-1-yl)-2,3,4,7,8,9,10,11,12,13,14,15-dodecahydro-1H-cyclopenta[a]phenanthren-3-yl)isonicotinamide]
Maximum Inhibition (%) (LNCaP cells): 99.35% | IC50 (LNCaP cells): 205 nM | Anti-proliferative activity, fold improvement compared to abiraterone (LNCaP cells): 15.8 fold | Growth of androgen-dependent organs (SVCG and VP weight) compared to the castration group [1]: significantly inhibited the growth of androgen-dependent organs | In vivo anti-androgenic activity compared with enzalutamide [1]: activity comparable to enzalutamide

Cc1cn(C2=CCC3C4CC=C5C[C@@H](NC(=O)c6ccc(F)cc6)CC[C@]5(C)C4CC[C@]23C)cn1 (stereo partly drawn) [Compound 33, N-((3S,10R,13S)-17-(4-methyl-1H-imidazol-1-yl)-10,13-dimethyl-2,3,4,7,8,9,10,11,12,13,14,15-dodecahydro-1H-cyclopenta[a]phenanthren-3-yl)-4-fluorobenzamide]
DC50 (AR): 1280 nM | AR degradation activity, improvement compared to Galeterone (AR): 8.1 times | Maximum Inhibition (%) (LNCaP cells): 102.9% | IC50 (LNCaP cells): 478 nM | Anti-tumor activity and efficacy compared to enzalutamide (LNCaP cells; in words): comparable anti-tumor activity but significantly superior anti-tumor efficacy compared to enzalutamide | Growth of androgen-dependent organs (SVCG and VP weight) compared to the castration group [1]: significantly inhibited the growth of androgen-dependent organs | In vivo anti-androgenic activity compared with enzalutamide [1]: activity comparable to enzalutamide

Cc1cn(C2=CCC3C4CC=C5C[C@@H](NC(=O)c6ccc(S(C)(=O)=O)cc6)CC[C@]5(C)C4CC[C@]23C)cn1 (stereo partly drawn) [Compound 35, N-((3S,10R,13S)-17-(4-methyl-1H-imidazol-1-yl)-10,13-dimethyl-2,3,4,7,8,9,10,11,12,13,14,15-dodecahydro-1H-cyclopenta[a]phenanthren-3-yl)-4-(methylsulfonyl)benzamide]
DC50 (AR): 1560 nM | AR degradation activity, improvement compared to Galeterone (AR): 6.7 times | Maximum Inhibition (%) (LNCaP cells): 96.85% | IC50 (LNCaP cells): 527 nM

Cc1cn(C2=CCC3C4CC=C5C[C@@H](NC(=O)c6ccc(F)cc6F)CC[C@]5(C)C4CC[C@]23C)cn1 (stereo partly drawn) [Compound 37, N-((3S,10R,13S)-17-(4-methyl-1H-imidazol-1-yl)-10,13-dimethyl-2,3,4,7,8,9,10,11,12,13,14,15-dodecahydro-1H-cyclopenta[a]phenanthren-3-yl)-2,4-difluorobenzamide]
DC50 (AR): 1680 nM | AR degradation activity, improvement compared to Galeterone (AR): 6.2 times | Maximum Inhibition (%) (LNCaP cells): 95.85% | IC50 (LNCaP cells): 327 nM | Anti-proliferative activity, fold improvement compared to abiraterone (LNCaP cells): 8.6 fold | Growth of androgen-dependent organs (SVCG and VP weight) compared to the castration group [1]: significantly inhibited the growth of androgen-dependent organs | In vivo anti-androgenic activity compared with enzalutamide [1]: activity comparable to enzalutamide
